Entries after “also recorded” stand apart in the source; their conditions may differ.
Tests used:
[1] = target: carboxypeptidase Y (Saccharomyces cerevisiae, UniProt P00729); assay: Carboxypeptidase Y-mediated cleavage monitored by 31P-NMR; format: in vitro ADME; conditions: for time to complete conversion of the starting material: carboxypeptidase Y; for conversion of the starting material by carboxypeptidase Y: result in words
[2] = test system: human embryonic lung (HEL) fibroblasts; assay: Minimum cytotoxic concentration, HEL cell morphology
[3] = test system: HSV-1 (KOS); assay: Anti-HSV-1; format: cell-based, herpes simplex virus type 1; conditions: HEL cell cultures
[4] = test system: HSV-2 (G); assay: Anti-HSV-2; format: cell-based, herpes simplex virus type 2; conditions: HEL cell cultures
[5] = test system: thymidine kinase-deficient (TK−) HSV-1 KOS strain; format: cell-based, herpes simplex virus type 1; conditions: HEL cell cultures; for Antiviral Activity EC50 HSV-1 TK (KOS): TK-deficient, ACV-resistant strain
[6] = test system: HIV-1; assay: HIV-1 inhibition in MT-4 cell cultures; format: cell-based, human immunodeficiency virus type 1; conditions: HIV-1, MT-4 cells

Chain of carboxypeptidase Y (P00729 112-532): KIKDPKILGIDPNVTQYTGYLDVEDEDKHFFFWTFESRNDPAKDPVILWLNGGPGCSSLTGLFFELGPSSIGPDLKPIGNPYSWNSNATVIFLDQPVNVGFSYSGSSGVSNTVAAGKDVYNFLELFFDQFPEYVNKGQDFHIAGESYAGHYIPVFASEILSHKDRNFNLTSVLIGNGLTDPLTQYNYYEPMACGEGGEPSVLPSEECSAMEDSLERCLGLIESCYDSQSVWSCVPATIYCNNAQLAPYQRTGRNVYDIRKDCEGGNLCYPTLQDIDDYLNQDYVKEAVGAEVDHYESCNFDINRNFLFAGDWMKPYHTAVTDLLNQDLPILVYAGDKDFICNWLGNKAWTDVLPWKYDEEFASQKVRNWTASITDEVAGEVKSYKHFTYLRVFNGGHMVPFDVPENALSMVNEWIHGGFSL

Compound	Cytotoxicity MCC ([2]; Table 4 (HCMV/VZV assays)) [µM]	Cytotoxicity MCC ([2]; Table 3 (HSV assays)) [µM]	Antiviral Activity EC50 HSV-1 TK (KOS) [5]	other results
C[C@H](NP(=O)(OCC(CO)CCn1cnc2c(Cl)nc(N)nc21)Oc1ccccc1)C(=O)OCc1ccccc1 (mixture of isomers) [Compound 60]	>100	–	–	time to complete conversion of the starting material [1]: ≤ 0.5 h; conversion of the starting material by carboxypeptidase Y [1]: completely converted and full
Nc1nc(O)c2ncn(CSC(CO)CO)c2n1 [Compound 3]	–	–	–	Antiviral Activity EC50 HSV-1 (KOS) [3]: sub-micromolar activity; Antiviral Activity EC50 HSV-2 (G) [4]: sub-micromolar activity
CC(C)OC(=O)[C@H](C)NP(=O)(OCC(COP(=O)(N[C@@H](C)C(=O)OC(C)C)Oc1cccc2ccccc12)OCn1cnc2c(=O)[nH]c(N)nc21)Oc1cccc2ccccc12 (stereo partly drawn) [Compound 15, 2-amino-9-{[(1,3-dihydroxypropan-2-yl)oxy]methyl}-6,9-dihydro-1H-purin-6-one-[1-naphthyl(isopropoxy-L-alaninyl)] diphosphate]	>100	≥100	marginal activity	–
CC(C)OC(=O)[C@H](C)NP(=O)(OCC(CO)OCn1cnc2c(=O)[nH]c(N)nc21)Oc1cccc2ccccc12 (stereo partly drawn) [Compound 16, 2-amino-9-{[(1,3-dihydroxypropan-2-yl)oxy]methyl}-6,9-dihydro-1H-purin-6-one-[1-naphthyl(isopropoxy-L-alaninyl)]phosphate]	>100	>100	marginal activity	conversion of the starting material by carboxypeptidase Y [1]: slow and incomplete conversion; also recorded: partial
C[C@H](NP(=O)(OCC(COP(=O)(N[C@@H](C)C(=O)OCc1ccccc1)Oc1ccccc1)OCn1cnc2c(=O)[nH]c(N)nc21)Oc1ccccc1)C(=O)OCc1ccccc1 (stereo partly shown) [Compound 17]	>100	>100	considerable activity	–
C[C@H](NP(=O)(OCC(COP(=O)(N[C@@H](C)C(=O)OCc1ccccc1)Oc1cccc2ccccc12)OCn1cnc2c(=O)[nH]c(N)nc21)Oc1cccc2ccccc12)C(=O)OCc1ccccc1 (stereo partly shown) [Compound 18]	>50	–	–	fold difference in EC50 values between HSV-1 TK+ and TK− strains [5]: < 2.5 fold
CC(C)(NP(=O)(OCC(COP(=O)(NC(C)(C)C(=O)OCc1ccccc1)Oc1ccccc1)OCn1cnc2c(=O)[nH]c(N)nc21)Oc1ccccc1)C(=O)OCc1ccccc1 (stereo not shown) [Compound 19]	–	–	–	fold difference in EC50 values between HSV-1 TK+ and TK− strains [5]: < 2.5 fold
CC(C)(NP(=O)(OCC(COP(=O)(NC(C)(C)C(=O)OCc1ccccc1)Oc1cccc2ccccc12)OCn1cnc2c(=O)[nH]c(N)nc21)Oc1cccc2ccccc12)C(=O)OCc1ccccc1 (stereo not shown) [Compound 21]	–	>100	considerable activity	–
CC(C)(NP(=O)(OCC(CO)OCn1cnc2c(=O)[nH]c(N)nc21)Oc1cccc2ccccc12)C(=O)OCc1ccccc1 (stereo not shown) [Compound 22]	>50	>100	–	fold difference in EC50 values between HSV-1 TK+ and TK− strains [5]: < 2.5 fold
C[C@H](NP(=O)(OCC(CO)OCn1cnc2c(=O)[nH]c(N)nc21)Oc1cccc2ccccc12)C(=O)OCc1ccccc1 (stereo partly shown) [Compound 28]	>100	>100	considerable activity	–
C[C@H](NP(=O)(OCC(CCn1cnc2c(=O)[nH]c(/N=C/N(C)C)nc21)COP(=O)(N[C@@H](C)C(=O)OCc1ccccc1)Oc1ccccc1)Oc1ccccc1)C(=O)OCc1ccccc1 (stereo partly shown) [Compound 30]	–	>100	inactive	Antiviral Activity EC50 HSV-1 (KOS) [3]: inactive; Antiviral Activity EC50 HSV-2 (G) [4]: inactive
C[C@H](NP(=O)(OCC(CCn1cnc2c(=O)[nH]c(/N=C/N(C)C)nc21)COP(=O)(N[C@@H](C)C(=O)OCc1ccccc1)Oc1cccc2ccccc12)Oc1cccc2ccccc12)C(=O)OCc1ccccc1 (stereo partly shown) [Compound 31]	–	–	inactive	Antiviral Activity EC50 HSV-1 (KOS) [3]: inactive; Antiviral Activity EC50 HSV-2 (G) [4]: inactive
C[C@H](NP(=O)(OCC(CCn1cnc2c(=O)[nH]c(N)nc21)COP(=O)(N[C@@H](C)C(=O)OCc1ccccc1)Oc1cccc2ccccc12)Oc1cccc2ccccc12)C(=O)OCc1ccccc1 (stereo partly shown) [Compound 37]	>50	–	inactive	Antiviral Activity EC50 HSV-1 (KOS) [3]: inactive; Antiviral Activity EC50 HSV-2 (G) [4]: inactive
CC(C)(NP(=O)(OCC(CCn1cnc2c(=O)[nH]c(N)nc21)COP(=O)(NC(C)(C)C(=O)OCc1ccccc1)Oc1ccccc1)Oc1ccccc1)C(=O)OCc1ccccc1 (stereo not shown) [Compound 38]	>50	>100	inactive	Antiviral Activity EC50 HSV-1 (KOS) [3]: inactive; Antiviral Activity EC50 HSV-2 (G) [4]: inactive
CC(C)(NP(=O)(OCC(CO)CCn1cnc2c(=O)[nH]c(N)nc21)Oc1ccccc1)C(=O)OCc1ccccc1 (stereo not shown) [Compound 39]	>50	>100	–	–
CC(C)(NP(=O)(OCC(CCn1cnc2c(=O)[nH]c(N)nc21)COP(=O)(NC(C)(C)C(=O)OCc1ccccc1)Oc1cccc2ccccc12)Oc1cccc2ccccc12)C(=O)OCc1ccccc1 (stereo not shown) [Compound 40]	>50	100	inactive	Antiviral Activity EC50 HSV-1 (KOS) [3]: inactive; Antiviral Activity EC50 HSV-2 (G) [4]: inactive
CC(C)(NP(=O)(OCC(CO)CCn1cnc2c(=O)[nH]c(N)nc21)Oc1cccc2ccccc12)C(=O)OCc1ccccc1 (stereo not shown) [Compound 41]	>50	>100	–	–

Compound	Cytotoxicity MCC ([2]; Table 4 (HCMV/VZV assays)) [µM]	Cytotoxicity MCC ([2]; Table 3 (HSV assays)) [µM]	Antiviral Activity EC50 HSV-1 TK (KOS) [5]	other results
C[C@H](NP(=O)(OCC(CO)CCn1cnc2c(=O)[nH]c(N)nc21)Oc1ccccc1)C(=O)OCc1ccccc1 (stereo partly shown) [Compound 42]	>50	>100	–	selectivity index (ratio IC50/EC50) [6]: > 15
C[C@H](NP(=O)(OCC(CO)CCn1cnc2c(=O)[nH]c(N)nc21)Oc1cccc2ccccc12)C(=O)OCc1ccccc1 (stereo partly shown) [Compound 45]	>50	>100	–	conversion of the starting material by carboxypeptidase Y [1]: slow and incomplete conversion; also recorded: partial
C[C@H](NP(=O)(OCC(CCn1cnc2c(Cl)nc(N)nc21)COP(=O)(N[C@@H](C)C(=O)OCc1ccccc1)Oc1ccccc1)Oc1ccccc1)C(=O)OCc1ccccc1 (stereo partly shown) [Compound 59]	–	–	–	fold loss in antiviral activity versus mono-ProTide 60 [6]: 7 fold
COc1nc(N)nc2c1ncn2CCC(COP(=O)(N[C@@H](C)C(=O)OCc1ccccc1)Oc1ccccc1)COP(=O)(N[C@@H](C)C(=O)OCc1ccccc1)Oc1ccccc1 (stereo partly shown) [Compound 61]	>50	–	–	–
COc1nc(N)nc2c1ncn2CCC(COP(=O)(N[C@@H](C)C(=O)OCC(C)(C)C)Oc1cccc2ccccc12)COP(=O)(N[C@@H](C)C(=O)OCC(C)(C)C)Oc1cccc2ccccc12 (stereo partly shown) [Compound 62]	≥20	≥100	–	–
CCCOC(=O)[C@H](C)NP(=O)(OCC(CCn1cnc2c(OC)nc(N)nc21)COP(=O)(N[C@@H](C)C(=O)OCCC)Oc1cccc2ccccc12)Oc1cccc2ccccc12 (stereo partly shown) [Compound 63]	≥50	≥100	–	conversion of the starting material by carboxypeptidase Y [1]: fast conversion; also recorded: partial
CCC(C)(C)COC(=O)[C@H](C)NP(=O)(OCC(CCn1cnc2c(OC)nc(N)nc21)COP(=O)(N[C@@H](C)C(=O)OCC(C)(C)CC)Oc1cccc2ccccc12)Oc1cccc2ccccc12 (stereo partly shown) [Compound 64]	–	≥100	–	–
COc1nc(N)nc2c1ncn2CCC(CO)COP(=O)(N[C@@H](C)C(=O)OCc1ccccc1)Oc1ccccc1 (stereo partly shown) [Compound 66]	–	–	retention of some activity	selectivity index (ratio IC50/EC50) [6]: 21
COc1nc(N)nc2c1ncn2CCC(CO)COP(=O)(N[C@@H](C)C(=O)OCc1ccccc1)Oc1cccc2ccccc12 (stereo partly shown) [Compound 67]	>50	–	retention of some activity	–
COc1nc(N)nc2c1ncn2CCC(CO)COP(=O)(N[C@@H](C)C(=O)OCC(C)(C)C)Oc1cccc2ccccc12 (stereo partly shown) [Compound 68]	>50	–	retention of some activity	–
CCCOC(=O)[C@H](C)NP(=O)(OCC(CO)CCn1cnc2c(OC)nc(N)nc21)Oc1cccc2ccccc12 (stereo partly shown) [Compound 69]	≥50	100	–	time to complete conversion of the starting material [1]: ≤ 2 h; conversion of the starting material by carboxypeptidase Y [1]: complete conversion and full
COC(=O)[C@H](C)NP(=O)(OCC(CO)CCn1cnc2c(OC)nc(N)nc21)Oc1cccc2ccccc12 (stereo partly shown) [Compound 70]	≥50	≥100	–	–
CCC(C)(C)COC(=O)[C@H](C)NP(=O)(OCC(CO)CCn1cnc2c(OC)nc(N)nc21)Oc1cccc2ccccc12 (stereo partly shown) [Compound 71]	≥50	100	–	–
COc1nc(N)nc2c1ncn2CCC(CO)COP(=O)(N[C@@H](C)C(=O)OC1CCCCC1)Oc1cccc2ccccc12 (stereo partly shown) [Compound 72]	–	≥100	retention of some activity	–
CCOC(=O)[C@H](C)NP1(=O)OCC(OCn2cnc3c(=O)[nH]c(N)nc32)CO1 (stereo partly shown) [Compound 74]	–	–	–	selectivity index (ratio IC50/EC50) [6]: > 7
C[C@H](NP1(=O)OCC(OCn2cnc3c(Cl)nc(N)nc32)CO1)C(=O)OCc1ccccc1 (stereo partly shown) [Compound 75]	–	–	–	time to complete conversion of the starting material [1]: ≤ 1 h; conversion of the starting material by carboxypeptidase Y [1]: completely metabolised
CC(=O)OCC(COP(=O)(N[C@@H](C)C(=O)OCc1ccccc1)Oc1ccccc1)OCn1cnc2c(Cl)nc(N)nc21 (stereo partly shown) [Compound 77]	–	–	–	conversion of the starting material by carboxypeptidase Y [1]: quickly metabolised

Reference: PMC5731253 (Journal of medicinal chemistry, 2017)
